Reference: patent publication US20220117958A1, “COMPOSITIONS AND METHODS FOR INHIBITING ACSS2” (THE TRUSTEES OF THE UNIVERSITY OF PENNSYLVANIA, priority 2018, published 2022)
Converted amounts (≈) assume the structure as drawn. “And” between values parts separate entries of the source, which are not always exact repeats. Identical values can stand only once. “Also recorded” adds a separate entry of the source. Marks after values point to notes of the source that are not given here.

Legend:
[1] = Microsomal stability assay (half-life), human; format: in vitro ADME; conditions: Human microsomes, read-out: Microsomal stability T1/2
Excerpt: (§1) Table 20 provides results of in vitro and in vivo pharmacokinetics performed for each of the represented compounds.

[2] = Microsomal stability assay (half-life), rat; format: in vitro ADME; conditions: Rat (SD) microsomes, read-out: Microsomal stability T1/2
Excerpt: as §1

[3] = In vivo PK, IV dose, Terminal - brain (brain availability); set-up: species or system Rat (SD); conditions: for Brain concentration, mean / Brain concentration, individual animal: IV 1 mg/kg
Experimental: Table 3 and FIG. 5 depict the brain availability of ADG I-204, ADG I-205, ADG I-206, and ADG I-207 after IV administration of 1 mg/kg dose.

[4] = test system: primary hippocampal neurons; experiment: RNA-seq, acetate-induced transcription in primary hippocampal neurons; format: cell-based, mouse
Experimental: Alcohol and acetate have pleiotropic effects on brain circuitry and metabolism. Utilizing isolated mouse primary hippocampal neurons, the transcriptional response to supraphysiological levels of acetate (cells were cultured for one week after isolation and subsequently treated with 5 mM acetate for 24 hours) that mimics exogenous acetate influx during alcohol intake was investigated. Further, to determine the specific role of ACSS2 in transcriptional responses to acetate, a highly specific small molecule inhibitor of ACSS2 (ACSS2i ADG-205: C20H18N4O2S2, FIG. 15A) was employed.

[5] = Microsomal stability assay (half-life), mouse; format: in vitro ADME; conditions: Mouse (CD1) microsomes, read-out: Microsomal stability T1/2
Excerpt: as §1

[6] = Protein binding via Rapid Equilibrium Dialysis - plasma; format: in vitro ADME; conditions: Rat (SD) plasma, 2 μM
Excerpt: as §1

[7] = In vivo PK, oral gavage, plasma; set-up: species or system Rat (SD); conditions: SD, rat, plasma, po, 5 mg/kg
Excerpt: as §1
(§2) Tables 4 and 5 depict the summary of rat plasma sample concentrations after administration of ADG I-204. FIG. 6 provides a summary of rat plasma and brain concentrations.

mice = experiment: Object-location memory paradigm; format: in vivo; conditions: recall phase, versus DMSO injected
Experimental: FIG. 29 depicts a graph showing the time spent interacting with an individual object relative to the total time spent interacting with all objects.
To assess hippocampus-dependent spatial memory, an object-location memory paradigm is used. Animals explore three different objects during training, and long-term memory is tested by re-exposure 24 hours later with one object moved to a different location. In training, control and inhibitor treated mice show no difference in exploration. During memory retrieval, control mice show increased exploration of the object that had been moved. By contrast, mice treated with an ACSS2 inhibitor are impaired in spatial object memory and display a lower discrimination index.
The conditions were blind as it relates to the injection (DMSO versus ADG-205c) and the locations of objects (those in the same location versus novel location). An online stopwatch interface was used that allowed use 3 simultaneous timer, one for each object. Each timer was stopped individually as the mouse interacted with a given object. […] Some mice remained stationary for substantial amounts of time relative to the others—some appearing apprehensive huddled in a corner, some spending time grooming.

[8] = Turbidity-based aqueous solubility; format: physicochemical; conditions: aqueous solution (composition not given), kinetic from dmso stock, read-out: highest soluble concentration
Excerpt: as §1

[9] = In vivo PK, IV dose, plasma; set-up: species or system Rat (SD); conditions: for Plasma concentration, mean / Plasma concentration, individual animal: IV 1 mg/kg
Excerpt: as §1, §2

[10] = In vivo PK, oral gavage, plasma; set-up: species or system Rat (SD); conditions: Rat, PO 5 mg/kg, BQL limit 1.00 ng/mL, listed as ADG I-205, 5 mg/kg
H3K9ac = experiment: Western blot, differentiated CAD cell lysates, H3K9ac levels; format: cell-based; conditions: differentiated CAD cells, DMSO = 100.00%
Excerpt: as §1

COCCNC(=O)Nc1ccc2nc(-c3cccs3)c(-c3cccs3)nc2c1 [ADG-205c, 1-(2,3-di(thiophen-2-yl)quinoxalin-6-yl)-3-(2-methoxyethyl)urea]
half-life at 2 μM [1]: 27.8 min | half-life at 2 μM [2]: 11.6 min | Brain concentration, mean ([3]; Rat (SD), 4 hr, BQL limit 10.0 ng/g (204, 206), 20.0 ng/g (205, 207), listed as ADG I-205, 1 mg/kg): 23 ng/g | Brain concentration, mean ([3]; Rat (SD), 8 hr, BQL limit 10.0 ng/g (204, 206), 20.0 ng/g (205, 207)): BQL | Brain concentration, mean ([3]; Rat (SD), 24 hr, BQL limit 10.0 ng/g (204, 206), 20.0 ng/g (205, 207)): BQL | Brain concentration, individual animal ([3]; Rat, 0.0830 hr, third animal received only 70% of the test article, listed as ADG I-205, 1 mg/kg): 544 ng/g and 487 ng/g and 213*** ng/g | Brain concentration, individual animal ([3]; Rat, 1.00 hr, listed as ADG I-205, 1 mg/kg): 102 ng/g and 171 ng/g | Brain concentration, individual animal ([3]; Rat, 4.00 hr, BQL limit 10.0 ng/g (204, 206), 20.0 ng/g (205, 207), listed as ADG I-205, 1 mg/kg): BQL | Brain concentration, individual animal ([3]; Rat, 8.00 hr, BQL limit 10.0 ng/g (204, 206), 20.0 ng/g (205, 207)): BQL | Brain concentration, individual animal ([3]; Rat, 24.0 hr, BQL limit 10.0 ng/g (204, 206), 20.0 ng/g (205, 207)): BQL | concentration at 0.083 h ([3]; SD, rat, brain, iv, 1 mg/kg, Rat (SD), 0.083 hr): 415 ng/g | concentration at 1 h ([3]; SD, rat, brain, iv, 1 mg/kg, Rat (SD), 1 hr, read-out: Brain concentration, mean): 135 ng/g | concentration at 4 h ([3]; SD, rat, brain, iv, 1 mg/kg, Rat (SD), 4 hr, BQL limit 10.0 ng/g (204, 206), 20.0 ng/g (205, 207), read-out: Brain concentration, mean): 23.4 ng/g | concentration at 1 h ([3]; SD, rat, brain, iv, 1 mg/kg, Rat, 1.00 hr, read-out: Brain concentration, individual animal): 132 ng/g | concentration at 4 h ([3]; SD, rat, brain, iv, 1 mg/kg, Rat, 4.00 hr, BQL limit 10.0 ng/g (204, 206), 20.0 ng/g (205, 207), read-out: Brain concentration, individual animal): 23.4 ng/g | Number of the 3613 acetate-induced genes that fail to be upregulated in the presence of inhibitor ([4]; 5 mM acetate, 24 hours, RNA-seq): 2107 genes | Slc17a7 induction upon acetate treatment ([4]; acetate, ACSS2 inhibited): induction was diminished | Acetate induction of ACSS2 target genes with alcohol-induced H3K9ac ([4]; hippocampal neurons ex vivo, acetate): blocks this gene induction | Acetate induction of ACSS2 target genes with alcohol-induced H3K27ac ([4]; hippocampal neurons ex vivo, acetate, listed as ACSS2i): failed to be induced; also recorded: blocks this gene induction | Regulation of acetate-induced genes by inhibitor in the absence of acetate ([4]; no acetate): not regulated | half-life at 2 μM [5]: 4.72 min | Protein binding, plasma: % Protein free [6]: 0.2915 % Protein free | concentration at 0.25 h ([7]; Rat (SD), 0.25 hr, BQL = below quantitation limit (1.00 ng/mL), read-out: Plasma concentration, mean): 83.5 ng/mL | concentration at 0.5 h ([7]; Rat (SD), 0.5 hr, BQL = below quantitation limit (1.00 ng/mL), read-out: Plasma concentration, mean): 371 ng/mL | concentration at 1 h ([7]; Rat (SD), 1 hr, BQL = below quantitation limit (1.00 ng/mL), read-out: Plasma concentration, mean): 641 ng/mL | concentration at 4 h ([7]; Rat (SD), 4 hr, BQL = below quantitation limit (1.00 ng/mL)): 693 ng/mL | concentration at 8 h ([7]; Rat (SD), 8 hr, BQL = below quantitation limit (1.00 ng/mL), read-out: Plasma concentration, mean): 354 ng/mL | concentration at 24 h ([7]; Rat (SD), 24 hr, BQL = below quantitation limit (1.00 ng/mL), read-out: Plasma concentration, mean): 3.06 ng/mL | concentration at 1 h ([7]; Rat, 1.00 hr, BQL limit 1.00 ng/mL, read-out: Plasma concentration, individual animal): 466 ng/mL | Preference for object moved to novel location (time interacting with object relative to all objects) (mice): very little preference for one object | solubility [8]: 5 µM (≈ 2.05 µg/mL) | Plasma concentration, mean ([9]; Rat (SD), 8 hr, terminal, listed as ADG I-205, 1 mg/kg): 29 ng/mL | Plasma concentration, mean ([9]; Rat (SD), 24 hr, terminal, BQL limit 1.00 ng/mL (ADG I-205: 2.00 ng/mL), 1 mg/kg): 3 ng/mL | Plasma concentration, individual animal ([9]; Rat, 0.0830 hr, terminal, third animal received only 70% of the test article, listed as ADG I-205, 1 mg/kg): 2310 ng/mL and 1700 ng/mL and 865*** ng/mL | Plasma concentration, individual animal ([9]; Rat, 0.500 hr, not terminal (animals 4, 5 and 6), listed as ADG I-205, 1 mg/kg): 8520** ng/mL and 1380 ng/mL and 1470 ng/mL | Plasma concentration, individual animal ([9]; Rat, 1.00 hr, terminal, listed as ADG I-205, 1 mg/kg): 895 ng/mL and 1190 ng/mL | Plasma concentration, individual animal ([9]; Rat, 4.00 hr, terminal, BQL limit 1.00 ng/mL (ADG I-205: 2.00 ng/mL), 1 mg/kg): 187 ng/mL and 92.3 ng/mL | Plasma concentration, individual animal ([9]; Rat, 8.00 hr, terminal, BQL limit 1.00 ng/mL (ADG I-205: 2.00 ng/mL), 1 mg/kg): 27.0 ng/mL and 31.9 ng/mL | Plasma concentration, individual animal ([9]; Rat, 24.0 hr, terminal, BQL limit 1.00 ng/mL (ADG I-205: 2.00 ng/mL), 1 mg/kg): BQL | concentration at 0.083 h ([9]; SD, rat, plasma, iv, 1 mg/kg, Rat (SD), 0.083 hr, terminal, read-out: Plasma concentration, mean): 1630 ng/mL | concentration at 0.5 h ([9]; SD, rat, plasma, iv, 1 mg/kg, Rat (SD), 0.500 hr, not a terminal time point (animals 4, 5 and 6)): 3790 ng/mL | concentration at 1 h ([9]; SD, rat, plasma, iv, 1 mg/kg, Rat (SD), 1 hr, terminal, read-out: Plasma concentration, mean): 1040 ng/mL | concentration at 4 h ([9]; SD, rat, plasma, iv, 1 mg/kg, Rat (SD), 4 hr, terminal, read-out: Plasma concentration, mean): 140 ng/mL | concentration at 8 h ([9]; SD, rat, plasma, iv, 1 mg/kg, Rat (SD), 8 hr, terminal, read-out: Plasma concentration, mean): 29.1 ng/mL | concentration at 24 h ([9]; SD, rat, plasma, iv, 1 mg/kg, Rat (SD), 24 hr, terminal, BQL limit 1.00 ng/mL (ADG I-205: 2.00 ng/mL), read-out: Plasma concentration, mean): 2.63 ng/mL | concentration at 1 h ([9]; SD, rat, plasma, iv, 1 mg/kg, Rat, 1.00 hr, terminal, read-out: Plasma concentration, individual animal): 1030 ng/mL | concentration at 8 h ([9]; SD, rat, plasma, iv, 1 mg/kg, Rat, 8.00 hr, terminal, BQL limit 1.00 ng/mL (ADG I-205: 2.00 ng/mL), read-out: Plasma concentration, individual animal): 28.5 ng/mL | concentration at 24 h ([9]; SD, rat, plasma, iv, 1 mg/kg, Rat, 24.0 hr, terminal, BQL limit 1.00 ng/mL (ADG I-205: 2.00 ng/mL), read-out: Plasma concentration, individual animal): 2.63 ng/mL | Plasma concentration, individual animal ([10]; 0.250 hr): 30.4 ng/mL and 73.0 ng/mL and 147 ng/mL | Plasma concentration, individual animal ([10]; 0.500 hr): 145 ng/mL and 298 ng/mL and 669 ng/mL | Plasma concentration, individual animal ([10]; 1.00 hr): 550 ng/mL and 906 ng/mL | Plasma concentration, individual animal ([10]; 4.00 hr): 710 ng/mL and 430 ng/mL and 938 ng/mL | Plasma concentration, individual animal ([10]; 8.00 hr): 531 ng/mL and 235 ng/mL and 297 ng/mL | Plasma concentration, individual animal ([10]; 24.0 hr): 3.51 ng/mL and 1.48 ng/mL and 4.19 ng/mL | H3K9ac levels normalized to H3 and DMSO control (H3K9ac; 1 uM): 21.62% | H3K9ac levels normalized to H3 and DMSO control (H3K9ac; 5 uM): 17.18% | H3K9ac levels normalized to H3 and DMSO control (H3K9ac; 10 uM): 14.26% | H3K9ac levels normalized to H3 and DMSO control (H3K9ac; 20 uM): 21.52% | H3K9ac levels normalized to H3 and DMSO control (H3K9ac; 50 uM): 29.67% | H3K9ac levels normalized to H3 and DMSO control (H3K9ac; 100 uM): 16.42%
